The target in the assay is T1, GPR139 (arrestin-3 recruitment) (Homo sapiens, UniProt Q6DWJ6).
T1 construct: expressed in transfected cells; host or cells: HEK293A (transient, Lipofectamine 2000)
T1 sequence (Q6DWJ6 1-353): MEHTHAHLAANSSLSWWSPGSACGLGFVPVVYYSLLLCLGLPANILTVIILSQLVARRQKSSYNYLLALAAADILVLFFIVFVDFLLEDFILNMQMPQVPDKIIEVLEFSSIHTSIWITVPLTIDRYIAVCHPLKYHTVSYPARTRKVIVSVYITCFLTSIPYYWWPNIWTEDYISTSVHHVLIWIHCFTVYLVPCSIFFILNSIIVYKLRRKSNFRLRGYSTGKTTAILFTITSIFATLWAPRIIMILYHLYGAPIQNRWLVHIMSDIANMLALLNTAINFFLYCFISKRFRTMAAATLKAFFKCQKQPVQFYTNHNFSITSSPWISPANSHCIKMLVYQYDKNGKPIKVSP
Kind of assay: Arrestin-3 recruitment assay (enhanced bystander BRET), HEK293A. Type of assay: cell-based. Conditions: for Emax: HEK293-A, normalized to JNJ-63533054 (JNJ(S)); for EC50: read-out: pEC50 Arrestin-3 (converted); for Arrestin-3 recruitment: individual replicates. As for the experimental part: Primary screening and pharmacological characterization of compounds were performed using a CHO-K1 cell line that stably expresses human GPR139 (GPR139-CHOk1). The GPR139-CHOk1 cell line was kindly provided by H. Lundbeck A/S, Denmark[24]. GPR139-CHOk1 cells were grown in Ham’s F-12 Kaighn’s Modification Medium (ThermoFisher #21127030) supplemented with 10% dialyzed fetal bovine serum (US origin, ThermoFisher #26400044), 100 units/mL Penicillin-Streptomycin (ThermoFisher #15140122), and 1 mg/mL Geneticin (ThermoFisher #11811031). […] M1R-CHOk1 cells were purchased from The Missouri S&T cDNA Resource Center (#CEM100TN00). M1R-CHOk1 cells were grown in Ham’s F12 Medium (ThermoFisher #21765029) supplemented with 10% fetal bovine serum (Brazilian origin, ThermoFisher #10270106), 100 units/mL Penicillin-Streptomycin, and 0.25 mg/mL Geneticin. HEK293A cells transiently transfected with GPR139 were used for additional pharmacological assessment of signaling pathways activated by GPR139. HEK239A cells were generously provided by Dr. Asuka Inoue, Tohoku University, Japan. HEK293A cells were grown in Dulbecco’s Modified Eagle Medium (ThermoFisher #31966047) supplemented with 10% dialyzed fetal bovine serum and 100 units/mL Penicillin-Streptomycin. Cell lines were maintained at 37 °C in humidified incubator equilibrated with 5% CO2.
The enhanced bystander BRET arrestin recruitment assay developed by the work of Donthamsetti et al.[58] was used to measure the arrestin-3 recruitment by GPR139. HEK293A cells were reverse transfected 20–24 h prior to the assay. 50,000 cells were plated in each well of white opaque tissue culture treated 96-well plates (PerkinElmer #6005680) previously coated with poly-D-lysine. The transfection solutions were prepared as described, and 10 µL transfection solution was mixed with 100 µL cells in each well. The cells in each well were transfected with 6 ng GPR139, 0.6 ng RLuc8-Arrestin3-Sp1, 6 ng GRK5, and 62.5 ng MEMlinker[doubly palmitoylated fragment of GAP43]-Citrine-SH3 using 200 nL Lipofectamine 2000 Transfection Reagent. Each transfection was normalized to 80 ng total DNA with pcDNA3.1. On the day of the experiment, the cells were washed with HEPES buffer and incubated for 2 h in HEPES buffer prior to measurements. Test compounds were diluted in HEPES buffer from DMSO stocks (final DMSO concentration of maximally 0.3%). Renilla luciferase 8 (RLuc8) substrate Coelenterazine h (Cayman Chemical #16894) was diluted in HEPES buffer to 5 µM (final). Coelenterazine h was added, and the cells were incubated for 5 min followed by stimulation with test compounds. Simultaneous dual emission was measured at 535 nm and 475 nm on LUMIstar Omega Microplate Reader (BMG Labtech) at 37 °C over 30 min. The BRET ratio of 535 nm/475 nm (Citrine/RLuc8), reflecting the translocation of arrestin from the cytosol to the membrane, was used to determine the arrestin recruitment. The BRET response-time course area under the curve of the basal response obtained with buffer condition was subtracted from the absolute response at a given test compound concentration, and the responses were normalized to the one obtained with 10 µM JNJ-63533054.
Pharmacological data and statistical analyses were performed in GraphPad Prism v9–10 (Graphpad Software Inc., San Diego, CA), which are also specifically described in the figure and table legends. The functional assay responses were normalized to buffer (0%) and Lundbeck Cmp 1a or JNJ-63533054 (100%), for Ca^2+ and IP1 experiments in the GPR139-CHOk1 stable cell line or Ca^2+, G protein activation, and arrestin-3 recruitment experiments in the HEK293A cells transiently transfected with GPR139, respectively. Data are from at least three independent experiments, unless stated otherwise. Concentration-response curves were fitted applying non-linear regression using the log (agonist) versus response model with variable slope. ANOVA was applied for comparing results and determining statistical significance. […]
In general terms: Activated receptors often draw arrestin, which recruitment assays turn into a signal.

Where “and” joins values, the source holds several entries; their conditions need not be identical. Identical values can stand only once. Like-named read-outs stand apart in the source and are kept apart here.

Four compounds from PMC12775434, “Ultra-large virtual screening unveils potent agonists of the neuromodulatory orphan receptor GPR139” (Nature Communications, 2025) can be followed below.

The term Emax denotes the greatest response seen or fitted, relative to the assay's reference. For the compound `Cc1cscc1-c1nc(CC(=O)N[C@H](C)c2ccccc2)no1` [1.1(R)], the Emax was determined as 81 ± 5%. The EC50 (Supplementary Table 6) is 2.51 µM. Further, the Arrestin-3 recruitment (log [compound] M -4.5) was 72 % of JNJ-63533054 and 73 % of JNJ-63533054 and 89 % of JNJ-63533054. Further, where the note is “log [compound] M -5.0”, the Arrestin-3 recruitment is 69 % of JNJ-63533054 and 65 % of JNJ-63533054 (2×). Also, the Arrestin-3 recruitment (log [compound] M -5.5) is 54 % of JNJ-63533054 and 40 % of JNJ-63533054 and 41 % of JNJ-63533054. The Arrestin-3 recruitment (log [compound] M -6.0) is 36 % of JNJ-63533054 and 10 % of JNJ-63533054 and 17 % of JNJ-63533054. The Arrestin-3 recruitment (log [compound] M -6.5) is 17 % of JNJ-63533054 and 3.28 % of JNJ-63533054 and 1.44 % of JNJ-63533054. Moreover, the Arrestin-3 recruitment (log [compound] M -7.0) is 12 % of JNJ-63533054 and 3.28 % of JNJ-63533054 and 2 % of JNJ-63533054. Further, the Arrestin-3 recruitment (log [compound] M -7.5) was 1.13 % of JNJ-63533054 and 0.124 % of JNJ-63533054 and 0.145 % of JNJ-63533054.
Take `Cc1cscc1-c1nc(CC(=O)N[C@@H](C)c2ccccc2)no1` [1.1(S)]: the maximal effect (Emax) worked out at 96 ± 1%. Further, the EC50 (Supplementary Table 6) was 0.0794 µM. Further, the Arrestin-3 recruitment (log [compound] M -4.5) was 96 % of JNJ-63533054 and 88 % of JNJ-63533054 and 101 % of JNJ-63533054. In addition, the Arrestin-3 recruitment (log [compound] M -5.0) is 90 % of JNJ-63533054 and 91 % of JNJ-63533054 (2×). Moreover, under “log [compound] M -5.5”, the Arrestin-3 recruitment was 89 % of JNJ-63533054 and 102 % of JNJ-63533054 and 91 % of JNJ-63533054. Besides, where the note is “log [compound] M -6.0”, the Arrestin-3 recruitment is 109 % of JNJ-63533054 and 107 % of JNJ-63533054 and 84 % of JNJ-63533054. For the same compound, where the note is “log [compound] M -6.5”, the Arrestin-3 recruitment is 82 % of JNJ-63533054 and 87 % of JNJ-63533054 and 66 % of JNJ-63533054. Further, the Arrestin-3 recruitment (log [compound] M -7.0) is 57 % of JNJ-63533054 and 71 % of JNJ-63533054 and 50 % of JNJ-63533054. The Arrestin-3 recruitment (log [compound] M -7.5) is 23 % of JNJ-63533054 and 32 % of JNJ-63533054 and 4.63 % of JNJ-63533054.
In the case of `C[C@@H](NC(=O)CNC(=O)c1cccc(Cl)c1)c1ccccc1` [JNJ(R), reference compound], the EC50 is 15.8 µM. For the same compound, under “log [compound] M -4.5”, the Arrestin-3 recruitment is 43 % of JNJ-63533054 and 70 % of JNJ-63533054 and 77 % of JNJ-63533054. Moreover, the Arrestin-3 recruitment (log [compound] M -5.0) is 41 % of JNJ-63533054 and 39 % of JNJ-63533054 and 33 % of JNJ-63533054. In addition, where the note is “log [compound] M -5.5”, the Arrestin-3 recruitment was 37 % of JNJ-63533054 and 35 % of JNJ-63533054 and 17 % of JNJ-63533054. Also, where the note is “log [compound] M -6.0”, the Arrestin-3 recruitment was 20 % of JNJ-63533054 and 22 % of JNJ-63533054 and 12 % of JNJ-63533054. The Arrestin-3 recruitment (log [compound] M -6.5) was 14 % of JNJ-63533054 and 8 % of JNJ-63533054 and 1.75 % of JNJ-63533054. The Arrestin-3 recruitment (log [compound] M -7.0) is 4 % of JNJ-63533054 and 10 % of JNJ-63533054 and 2 % of JNJ-63533054. Further, the Arrestin-3 recruitment (log [compound] M -7.5) was 0 % of JNJ-63533054 (2×) and 0.153 % of JNJ-63533054.
`CC(NC(=O)CNC(=O)c1cccc(Cl)c1)c1ccccc1` (centres unmarked) [JNJ-63533054, reference compound]: the Emax was determined as 100 ± 4%. Further, the EC50 (Supplementary Table 6) is 0.158 µM. Further, the Arrestin-3 recruitment (log [compound] M -4.5, listed as JNJ (S)) was 94 % of JNJ-63533054 and 101 % of JNJ-63533054 and 107 % of JNJ-63533054. For the same compound, the Arrestin-3 recruitment (log [compound] M -5.0, listed as JNJ (S)) was 95 % of JNJ-63533054 and 99 % of JNJ-63533054 and 103 % of JNJ-63533054. For the same compound, where the note is “log [compound] M -5.5, listed as JNJ (S)”, the Arrestin-3 recruitment was 90 % of JNJ-63533054 and 100 % of JNJ-63533054 and 94 % of JNJ-63533054. In addition, the Arrestin-3 recruitment (log [compound] M -6.0, listed as JNJ (S)) was 85 % of JNJ-63533054 and 100 % of JNJ-63533054 and 78 % of JNJ-63533054. The Arrestin-3 recruitment (log [compound] M -6.5, listed as JNJ (S)) was 68 % of JNJ-63533054 and 81 % of JNJ-63533054 and 55 % of JNJ-63533054. For the same compound, the Arrestin-3 recruitment (log [compound] M -7.0, listed as JNJ (S)) is 45 % of JNJ-63533054 (2×) and 36 % of JNJ-63533054. In addition, under “log [compound] M -7.5, listed as JNJ (S)”, the Arrestin-3 recruitment is 8 % of JNJ-63533054 and 15 % of JNJ-63533054 and 0.123 % of JNJ-63533054.
